The source of these data is patent US4195172A.

Data set [1] is described as follows: Acute toxicity on intravenous administration in mice. Conditions: mouse, in vivo, administered intravenously, read-out: DL50 (the source's name).
The nature of data set [2]: physchem.
Data set [3] is described as follows: Selective toxicity: hemolysis of human erythrocytes versus potassium ion effluence from Saccharomyces cerevisiae cells. It counts as cell-based. The following applies: human erythrocytes vs saccharomyces cerevisiae; 50% hemolysis of human erythrocytes / 50% potassium effluence from Saccharomyces cerevisiae cells; column head is drawing 2; read-out: Selective toxicity index EH50/DK50. The text has this: (§1) The data representing the selective toxicity are also more advantageous for the N-methylglucamine salt of N-glycosyl derivatives of polyene macrolides than for Fungizone. The indices of selective toxicity EK50 /DK50 and EH50 /DK50, illustrating the ratio of the minimal antibiotic concentration causing 50% effluence of the potassium ions from erythrocytes of human blood/EK50 /and the minimal concentration of antibiotic causing 50% hemolysis of erythrocytes/EH50 /to the minimal antibiotic concentration causing 50% effluence of the potassium ions from Saccharomyces cerevisiae cells/DK50 /are compared in Table 6.

The nature of data set [4]: Selective toxicity: potassium ion effluence from human erythrocytes versus Saccharomyces cerevisiae cells. Conditions: human erythrocytes vs saccharomyces cerevisiae; 50% effluence of potassium ions from human erythrocytes / from Saccharomyces cerevisiae cells; column head is drawing 1; read-out: Selective toxicity index EK50/DK50. It counts as cell-based.
Description: as §1

Data set [5] can be described thus: Presence of antibiotic in serum after intravenous administration to rats. It counts as in vivo. The text has this:
In intravenous administration to rats of N-methylglucamine salts of polyene macrolide N-glycosyl derivatives as compared to Fungizone the effect is much more advantageous for the N-methylglucamine salts because the presence of antibiotic in the serum after administration can be found longer that in the case of Fungizone/Table 5/.

Data set [6] can be described thus: Stability on storage at different temperatures within 6 months (retained biological activity). The following applies: storage within 6 months, initial biological activity assumed as 100%, 262800 min.
In data set [7] the test system is Candida albicans. Kind of data set: Experimental chemotherapy of Candida albicans infected mice. It counts as in vivo. Conditions: Fungizone = 1. The text has this:
The relative activity index representing the antibiotic activity in experimental chemotherapy of Candida albicans infected mice is much more advantageous for the N-methylglucamine salts of the N-glycosyl derivatives of polyene macrolides than for Fungizone/Table 4/.

In data set [8] the test system is Aspergillus fumigatus. Kind of data set: Protection of mice in generalized aspergillosis. It counts as in vivo. The following applies: aspergillosis caused by Aspergillus fumigatus. As to the method: (§2) Average protective DP50 doses
(§3) 24 hours in a case of genera-

In data set [9] the test system is Candida krusei. Kind of data set: Sensitivity of Candida krusei strains. It is filed as cell-based. The text has this:
(§4) There is a different sensitivity of different strains, for example Candida sp. to the N-methylglucamine salt of the N-glycosyl derivative of amphotericin B and Fungizone. Statistically, the amount of to Fungizone insensitive strains is much higher than the amount of to N-methylglucaminesalt of the said derivative insensitive strains. This especially concerns Candida albicans strains ZM, HM, and 1/75, Candida tropicalis strains JD and 20/75 and Candida krusei strains TS and 16/75, which are insensitive to Fungizone, but sensitive to N-methylglucamine salt of N-glycosyl derivative of amphotericin B.

For data set [10], the system named is Candida albicans. Kind of data set: Sensitivity of Candida albicans strains. It counts as cell-based.
Description: as §4

Data set [11] has as its system Geotrichum candidum. In words: Protection of mice in generalized geotrichosis. It is filed as in vivo. As to the method:
as §2, §3

Data set [12] has as its system Torula sp., Geotrichum candidum and Cryptococcus neoformans. Kind of data set: In vitro antifungal activity in comparison with Fungizone (in words). It is filed as cell-based. The text has this:
The in vitro activities of the N-methylglucamine salts of the N-glycosyl derivative of amphotericin B and Fungizone against some fungi are compared in Table 3.

The subject of data set [13] is Candida tropicalis. Kind of data set: Sensitivity of Candida tropicalis strains. It is filed as cell-based.
Description: as §4

Counter-ions that a name gives are not always drawn.

Take `C[C@@H]1[C@H](O)[C@@H](C)/C=C/C=C/C=C/C=C/C=C/C=C/C=C/[C@H](O[C@@H]2O[C@H](C)[C@@H](O)[C@H](NC3O[C@H](CO)[C@@H](O)[C@H](O)[C@H]3O)[C@@H]2O)C[C@@H]2O[C@](O)(C[C@@H](O)C[C@@H](O)[C@H](O)CC[C@@H](O)C[C@@H](O)CC(=O)O[C@H]1C)C[C@H](O)[C@H]2C(=O)O` (stereo partly drawn) [N-methylglucamine salt of N-glycosyl derivative of amphotericin B]: the LD50 in data set [1] lay within 12.1 to 14.3 mg/kg. In data set [2], this molecule had a share remaining at 4380 h of 81.2%. The selectivity ratio was determined as 24 in data set [3] and 1.37 in data set [4]. Besides, the “Time of the presence of an antibiotic in serum after 1/5 DL50 dose administration” value in data set [5] was 15 min. In addition, the “Biological activity in % at +37° C.” value in data set [6] (+37° C.) is listed as 77.0%. Moreover, the “Biological activity in % at +50° C.” value in data set [6] (+50° C.) was determined as 79.8%. The “Biological activity in % at RT” value in [6] (RT) is 83.1%. Moreover, the “Relative activity index in Candida albicans mice infection” value in data set [7] turned out to be 2.35. For the same molecule, in data set [8], the “in vivo activity compared with Fungizone (in words), aspergillosis” value is “corresponds to activity of Fungizone”. For the same molecule, the ED50 in [8] (mice, read-out: Average protective DP50 doses, generalized aspergillosis) came out at 22.7 mg/kg; in data set [11] (mice, geotrichosis caused by Geotrichum candidum, read-out: Average protective DP50 doses, generalized geotrichosis), 17.9 mg/kg. The sensitivity of strain result in data set [9] (Candida krusei strain 16/75), in data set [9] (Candida krusei strain TS), in data set [10] (Candida albicans strain 1/75), in data set [10] (Candida albicans strain HM), in data set [10] (Candida albicans strain ZM) and in data set [13] (Candida tropicalis strain 20/75) was “sensitive” in each case. Also, in data set [13] (Candida tropicalis strain JD), the sensitivity of strain result is “sensitive”. In data set [11] (generalized geotrichosis caused by Geotrichum candidum), the “in vivo activity compared with Fungizone (in words), geotrichosis” value was “corresponds to activity of Fungizone”. Besides, in [12], the “antifungal activity in comparison with Fungizone (in words)” value was “exhanced antifungal activity”.
